{
  "source": "ChEMBL document CHEMBL4406807",
  "about": "“Discovery of 3,4,6-Trisubstituted Piperidine Derivatives as Orally Active, Low hERG Blocking Akt Inhibitors via Conformational Restriction and Structure-Based Design” (J Med Chem, 2019)",
  "key": {"[1]": {"biological_target": "Potassium voltage-gated channel subfamily A member 5 (Homo sapiens, UniProt P22460)", "test": "Inhibition of Kv1.5 (unknown origin) at 3 uM relative to control"}, "[2]": {"biological_target": "T1, Serine/threonine-protein kinase Sgk1 (Homo sapiens, UniProt O00141)", "T1 sequence (O00141 whole entry)": "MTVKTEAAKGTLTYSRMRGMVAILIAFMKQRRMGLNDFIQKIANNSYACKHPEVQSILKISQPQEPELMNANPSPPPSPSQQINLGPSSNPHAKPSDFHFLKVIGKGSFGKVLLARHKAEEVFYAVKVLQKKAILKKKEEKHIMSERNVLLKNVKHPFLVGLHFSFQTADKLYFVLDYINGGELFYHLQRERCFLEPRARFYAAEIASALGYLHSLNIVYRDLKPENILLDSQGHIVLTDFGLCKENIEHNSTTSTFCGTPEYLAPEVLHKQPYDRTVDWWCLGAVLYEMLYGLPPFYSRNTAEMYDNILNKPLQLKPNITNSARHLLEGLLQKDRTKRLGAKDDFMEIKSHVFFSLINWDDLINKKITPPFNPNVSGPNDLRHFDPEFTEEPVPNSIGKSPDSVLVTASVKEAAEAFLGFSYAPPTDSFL", "test": "Inhibition of human SGK by mobility shift assay"}, "[3]": {"biological_target": "Potassium voltage-gated channel subfamily A member 3 (Homo sapiens, UniProt P22001)", "test": "Inhibition of Kv1.3 (unknown origin) at 3 uM relative to control"}, "[4]": {"biological_target": "Potassium voltage-gated channel subfamily A member 4 (Homo sapiens, UniProt P22459)", "sequence (P22459 whole entry)": "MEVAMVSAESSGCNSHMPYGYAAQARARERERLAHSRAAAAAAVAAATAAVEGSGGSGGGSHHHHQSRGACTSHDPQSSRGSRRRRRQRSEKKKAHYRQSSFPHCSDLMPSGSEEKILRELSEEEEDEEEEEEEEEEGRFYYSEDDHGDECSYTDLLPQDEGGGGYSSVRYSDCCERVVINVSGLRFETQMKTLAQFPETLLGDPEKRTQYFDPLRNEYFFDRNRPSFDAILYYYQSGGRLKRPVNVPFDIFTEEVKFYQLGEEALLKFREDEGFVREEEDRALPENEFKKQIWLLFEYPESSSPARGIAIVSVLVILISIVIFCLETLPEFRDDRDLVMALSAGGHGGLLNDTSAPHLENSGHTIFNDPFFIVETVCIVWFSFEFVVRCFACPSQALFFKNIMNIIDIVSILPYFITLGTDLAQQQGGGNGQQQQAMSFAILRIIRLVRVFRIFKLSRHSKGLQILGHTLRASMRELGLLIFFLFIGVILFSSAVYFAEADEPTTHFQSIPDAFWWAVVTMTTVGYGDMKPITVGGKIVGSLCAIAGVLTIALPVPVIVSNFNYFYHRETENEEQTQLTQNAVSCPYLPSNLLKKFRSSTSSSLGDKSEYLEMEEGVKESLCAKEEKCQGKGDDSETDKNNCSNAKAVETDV", "test": "Inhibition of Kv1.4 (unknown origin) at 3 uM relative to control"}, "[5]": {"biological_target": "Potassium voltage-gated channel subfamily A member 7 (Homo sapiens, UniProt Q96RP8)", "test": "Inhibition of Kv1.7 (unknown origin) at 3 uM relative to control"}, "[6]": {"biological_target": "Sodium channel protein type 9 subunit alpha (Homo sapiens, UniProt Q15858)", "sequence (Q15858 whole entry)": "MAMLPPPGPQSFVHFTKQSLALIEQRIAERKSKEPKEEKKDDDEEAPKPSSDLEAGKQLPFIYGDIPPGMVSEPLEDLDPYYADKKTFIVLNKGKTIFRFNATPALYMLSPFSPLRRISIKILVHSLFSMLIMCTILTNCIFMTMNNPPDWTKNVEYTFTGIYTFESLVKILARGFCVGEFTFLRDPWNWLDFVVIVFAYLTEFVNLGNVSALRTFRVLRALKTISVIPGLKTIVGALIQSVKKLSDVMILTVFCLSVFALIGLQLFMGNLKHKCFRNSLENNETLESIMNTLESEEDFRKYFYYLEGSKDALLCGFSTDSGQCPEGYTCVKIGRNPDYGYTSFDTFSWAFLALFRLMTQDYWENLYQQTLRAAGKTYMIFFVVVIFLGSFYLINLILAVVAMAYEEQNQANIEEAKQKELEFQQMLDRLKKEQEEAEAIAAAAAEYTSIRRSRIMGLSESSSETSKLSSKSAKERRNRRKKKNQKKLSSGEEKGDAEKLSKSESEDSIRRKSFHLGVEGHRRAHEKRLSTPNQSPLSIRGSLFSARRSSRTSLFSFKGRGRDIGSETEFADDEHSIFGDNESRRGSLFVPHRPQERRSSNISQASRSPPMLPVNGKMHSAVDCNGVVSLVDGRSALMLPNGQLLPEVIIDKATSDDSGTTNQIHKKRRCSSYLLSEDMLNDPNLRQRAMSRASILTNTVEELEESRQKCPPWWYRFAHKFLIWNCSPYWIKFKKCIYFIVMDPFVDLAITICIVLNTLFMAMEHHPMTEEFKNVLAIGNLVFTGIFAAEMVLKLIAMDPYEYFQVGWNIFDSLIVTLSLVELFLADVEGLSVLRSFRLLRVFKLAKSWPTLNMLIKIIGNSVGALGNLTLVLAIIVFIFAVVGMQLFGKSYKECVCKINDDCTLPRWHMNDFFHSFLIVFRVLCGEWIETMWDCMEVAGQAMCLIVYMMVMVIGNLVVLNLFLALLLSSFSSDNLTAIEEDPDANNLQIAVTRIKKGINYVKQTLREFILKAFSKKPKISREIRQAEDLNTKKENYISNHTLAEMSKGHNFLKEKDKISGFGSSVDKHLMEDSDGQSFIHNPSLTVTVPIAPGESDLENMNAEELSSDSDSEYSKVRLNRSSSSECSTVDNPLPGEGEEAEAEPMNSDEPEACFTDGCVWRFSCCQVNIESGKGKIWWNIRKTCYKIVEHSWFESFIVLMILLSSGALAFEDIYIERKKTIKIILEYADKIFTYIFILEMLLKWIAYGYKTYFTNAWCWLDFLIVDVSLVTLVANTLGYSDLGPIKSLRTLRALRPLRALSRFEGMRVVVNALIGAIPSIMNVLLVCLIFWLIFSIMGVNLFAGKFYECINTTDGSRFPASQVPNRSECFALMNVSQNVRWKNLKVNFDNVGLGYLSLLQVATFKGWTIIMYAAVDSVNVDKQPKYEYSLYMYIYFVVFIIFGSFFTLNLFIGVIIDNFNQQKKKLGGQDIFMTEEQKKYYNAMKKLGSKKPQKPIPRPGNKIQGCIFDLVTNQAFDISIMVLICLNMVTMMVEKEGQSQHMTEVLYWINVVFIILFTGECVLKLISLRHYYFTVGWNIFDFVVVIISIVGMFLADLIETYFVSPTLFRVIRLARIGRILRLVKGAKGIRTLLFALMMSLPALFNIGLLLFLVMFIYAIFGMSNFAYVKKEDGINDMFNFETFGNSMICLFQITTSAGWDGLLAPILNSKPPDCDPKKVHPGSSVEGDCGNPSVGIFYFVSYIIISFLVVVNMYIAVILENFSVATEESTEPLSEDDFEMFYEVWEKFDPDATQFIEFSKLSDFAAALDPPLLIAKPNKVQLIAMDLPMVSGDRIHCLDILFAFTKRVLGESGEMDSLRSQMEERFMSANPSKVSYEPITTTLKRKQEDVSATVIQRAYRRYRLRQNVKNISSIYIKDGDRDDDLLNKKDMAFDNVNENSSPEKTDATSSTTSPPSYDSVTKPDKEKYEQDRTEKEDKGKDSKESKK", "test": "Inhibition of Nav1.7 (unknown origin)"}, "[7]": {"test": "Toxicity in ICR mouse assessed as maximum tolerated dose, ig administered once daily for 7 days", "conditions": "in vivo, po; call rule not given here"}, "HCT-116": {"test_system": "HCT-116", "test": "cells", "conditions": "Homo sapiens, HCT-116, 72 h"}, "[8]": {"biological_target": "Rho-associated protein kinase 1 (Homo sapiens, UniProt Q13464)", "sequence (Q13464 whole entry)": "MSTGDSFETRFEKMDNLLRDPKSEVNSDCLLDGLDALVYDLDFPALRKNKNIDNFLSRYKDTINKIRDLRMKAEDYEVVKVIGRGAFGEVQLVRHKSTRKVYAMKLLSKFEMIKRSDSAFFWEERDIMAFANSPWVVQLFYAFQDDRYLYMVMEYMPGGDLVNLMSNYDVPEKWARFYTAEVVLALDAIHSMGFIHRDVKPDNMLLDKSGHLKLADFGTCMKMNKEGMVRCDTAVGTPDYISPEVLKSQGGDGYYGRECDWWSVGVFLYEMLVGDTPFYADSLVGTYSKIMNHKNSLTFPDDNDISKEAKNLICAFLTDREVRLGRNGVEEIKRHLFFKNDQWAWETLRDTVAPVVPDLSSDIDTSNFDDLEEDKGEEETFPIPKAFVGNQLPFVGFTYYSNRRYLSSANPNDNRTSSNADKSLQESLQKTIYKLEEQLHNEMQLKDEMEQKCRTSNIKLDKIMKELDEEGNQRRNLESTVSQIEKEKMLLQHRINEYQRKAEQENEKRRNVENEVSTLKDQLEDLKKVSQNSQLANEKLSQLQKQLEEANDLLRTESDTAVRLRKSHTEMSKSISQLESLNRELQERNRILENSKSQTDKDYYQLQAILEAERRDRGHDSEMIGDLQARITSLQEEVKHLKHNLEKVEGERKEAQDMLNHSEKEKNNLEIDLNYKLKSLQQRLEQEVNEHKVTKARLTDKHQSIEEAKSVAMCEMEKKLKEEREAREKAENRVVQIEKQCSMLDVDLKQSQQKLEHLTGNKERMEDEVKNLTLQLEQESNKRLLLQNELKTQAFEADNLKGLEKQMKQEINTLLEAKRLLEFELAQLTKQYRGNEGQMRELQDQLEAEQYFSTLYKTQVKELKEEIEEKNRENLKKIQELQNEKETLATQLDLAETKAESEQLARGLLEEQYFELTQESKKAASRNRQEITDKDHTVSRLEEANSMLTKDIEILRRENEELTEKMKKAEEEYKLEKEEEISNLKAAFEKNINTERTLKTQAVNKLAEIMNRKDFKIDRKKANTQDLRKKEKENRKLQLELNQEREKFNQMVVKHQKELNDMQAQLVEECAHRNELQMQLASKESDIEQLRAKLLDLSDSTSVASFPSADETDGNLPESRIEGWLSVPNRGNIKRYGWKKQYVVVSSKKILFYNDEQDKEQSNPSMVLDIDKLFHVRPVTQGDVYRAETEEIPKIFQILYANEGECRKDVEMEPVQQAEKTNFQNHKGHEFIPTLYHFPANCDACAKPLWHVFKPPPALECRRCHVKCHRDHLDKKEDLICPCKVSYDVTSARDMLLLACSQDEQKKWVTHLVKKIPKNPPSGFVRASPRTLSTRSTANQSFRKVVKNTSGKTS", "test": "Inhibition of human ROCK1 by mobile shift assay"}, "[9]": {"test": "Half-life in Sprague-Dawley rat at 40 mg/kg, ig measured up to 24 hrs by LC-MS/MS analysis", "assay_type": "ADME, organism-based", "conditions": "in vivo, po"}, "SK-OV-3 [10]": {"test_system": "SK-OV-3", "test": "Induction of apoptosis in human SKOV3 cells at 2 uM by FACS based flow cytometric analysis (reference value: 7.63%)", "assay_type": "functional"}, "[11]": {"test": "Protein binding in mouse plasma at 300 ng/ml after 8 hrs by equilibrium dialysis", "assay_type": "ADME, cell-free", "conditions": "read-out: PPB (converted)"}, "[12]": {"test": "Toxicity in BALB/c nude mouse xenografted with human SKOV3 cells assessed as reduction in mouse survival at 60 to 80 mg/kg, po administered once daily for 21 days", "assay_type": "organism-based", "conditions": "in vivo, 504 h"}, "[13]": {"test": "Stability in human plasma at 100 ug/ml after 1 hr by LC/MS analysis", "assay_type": "ADME, cell-free", "conditions": "read-out: Stability"}, "[14]": {"biological_target": "Potassium/sodium hyperpolarization-activated cyclic nucleotide-gated channel 2 (Homo sapiens, UniProt Q9UL51)", "test": "Inhibition of HCN2 (unknown origin) at 3 uM relative to control"}, "[15]": {"test": "Toxicity in BALB/c nude mouse xenografted with human SKOV3 cells assessed as effect on body weight at 60 to 80 mg/kg, po administered once daily for 21 days", "assay_type": "organism-based", "conditions": "in vivo, 504 h"}, "[16]": {"test": "Microsomal stability in rat liver microsomes assessed as compound remaining at 100 ug/ml in presence of NADPH measured at 1.5 hrs by LC/MS analysis", "assay_type": "ADME, Microsome", "conditions": "read-out: Stability"}, "[17]": {"biological_target": "Potassium/sodium hyperpolarization-activated cyclic nucleotide-gated channel 3 (Homo sapiens, UniProt Q9P1Z3)", "sequence (Q9P1Z3 whole entry)": "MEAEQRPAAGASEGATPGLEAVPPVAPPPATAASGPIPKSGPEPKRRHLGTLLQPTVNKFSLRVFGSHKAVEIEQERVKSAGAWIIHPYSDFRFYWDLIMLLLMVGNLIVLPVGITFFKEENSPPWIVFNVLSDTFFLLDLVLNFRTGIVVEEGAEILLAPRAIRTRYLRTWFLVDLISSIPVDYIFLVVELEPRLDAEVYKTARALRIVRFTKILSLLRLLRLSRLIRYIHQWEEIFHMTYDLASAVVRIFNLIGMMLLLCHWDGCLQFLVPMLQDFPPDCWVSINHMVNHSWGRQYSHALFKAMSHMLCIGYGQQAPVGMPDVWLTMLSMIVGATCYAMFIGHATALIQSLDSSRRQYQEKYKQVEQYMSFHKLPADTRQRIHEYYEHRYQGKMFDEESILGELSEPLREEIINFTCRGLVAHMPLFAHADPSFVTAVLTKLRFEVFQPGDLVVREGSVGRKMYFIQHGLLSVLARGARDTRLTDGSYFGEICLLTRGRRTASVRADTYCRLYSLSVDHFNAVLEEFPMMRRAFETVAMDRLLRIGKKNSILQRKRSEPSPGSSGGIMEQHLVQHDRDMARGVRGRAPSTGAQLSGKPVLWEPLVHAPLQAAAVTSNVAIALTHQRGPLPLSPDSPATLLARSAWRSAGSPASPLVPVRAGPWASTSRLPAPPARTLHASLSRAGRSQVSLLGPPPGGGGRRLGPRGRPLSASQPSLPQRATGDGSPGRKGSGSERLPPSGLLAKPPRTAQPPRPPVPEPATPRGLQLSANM", "test": "Inhibition of HCN3 (unknown origin) at 3 uM relative to control"}, "[18]": {"test": "Toxicity in ICR mouse assessed as effect on serum hematology at 80 to 160 mg/kg, ig", "assay_type": "organism-based", "conditions": "in vivo, po"}, "[19]": {"test": "Stability in mouse plasma at 100 ug/ml after 1 hr by LC/MS analysis", "assay_type": "ADME, cell-free", "conditions": "read-out: Stability"}, "[20]": {"test": "Tmax in Sprague-Dawley rat at 40 mg/kg, ig measured up to 24 hrs by LC-MS/MS analysis", "assay_type": "ADME, organism-based", "conditions": "in vivo, po"}, "[21]": {"test": "Clearance in ICR mouse at 40 mg/kg, ig measured up to 48 hrs by LC-MS/MS analysis", "assay_type": "ADME, organism-based", "conditions": "in vivo, po"}, "[22]": {"test": "Clearance in Sprague-Dawley rat at 40 mg/kg, ig measured up to 24 hrs by LC-MS/MS analysis", "assay_type": "ADME, organism-based", "conditions": "in vivo, po"}, "SK-OV-3 [23]": {"test_system": "SK-OV-3", "test": "Induction of apoptosis in human SKOV3 cells at 0.4 uM by FACS based flow cytometric analysis (reference value: 7.63%)", "assay_type": "functional"}, "[24]": {"test": "Toxicity in ICR mouse assessed as induction of intestinal hemorrhage at 80 to 160 mg/kg, ig", "assay_type": "organism-based", "conditions": "in vivo, po"}, "[25]": {"test": "Cmax in Sprague-Dawley rat at 40 mg/kg, ig measured up to 24 hrs by LC-MS/MS analysis", "assay_type": "ADME, organism-based", "parameters": "dose 40 mg/kg, route […]", "conditions": "in vivo, po"}, "Protein kinase C (PKC)": {"biological_target": "Protein kinase C (PKC)", "test": "Inhibition of PKC (unknown origin)", "assay_type": "protein assay, Homo sapiens"}, "[26]": {"test": "Microsomal stability in dog liver microsomes assessed as compound remaining at 100 ug/ml in presence of NADPH measured at 1.5 hrs by LC/MS analysis", "assay_type": "ADME, Canis lupus familiaris, Microsome", "conditions": "read-out: Stability"}, "[27]": {"test": "MRT (0 to infinity) in Sprague-Dawley rat at 40 mg/kg, ig measured up to 24 hrs by LC-MS/MS analysis", "assay_type": "ADME, organism-based", "conditions": "in vivo, po"}, "[28]": {"test": "MRT (0 to t) in Sprague-Dawley rat at 40 mg/kg, ig measured up to 24 hrs by LC-MS/MS analysis", "assay_type": "ADME, organism-based", "conditions": "in vivo, po"}, "[29]": {"biological_target": "Ribosomal protein S6 kinase alpha-1 (Homo sapiens, UniProt Q15418)", "test": "Inhibition of RSK1 (unknown origin) by mobility shift assay"}, "SK-OV-3 [30]": {"test_system": "SK-OV-3", "test": "Antitumor activity against human SKOV3 cells xenografted in BALB/c nude mouse assessed as tumor growth inhibition at 80 mg/kg, po administered once daily for 21 days relative to control", "assay_type": "functional", "conditions": "SK-OV-3, po, 504 h, read-out: TGI"}},
  "data": [
    {"smiles": "CNC(=O)C[C@@H]1C[C@@H](c2ccc(F)c(F)c2)[C@H](NC(=O)c2cc(-c3c(Cl)cnn3C)c(Cl)o2)CN1", "values": [
      {"measurement": "inhibition (INH)", "setting": "[1]", "value": "Not Active"},
      {"measurement": "IC50", "setting": "[2]", "value": 145, "unit": "nM"},
      {"measurement": "inhibition (INH)", "setting": "[3]", "value": "Not Active"},
      {"measurement": "inhibition (INH)", "setting": "[4]", "value": "Not Active"},
      {"measurement": "inhibition (INH)", "setting": "[5]", "value": "Not Active"},
      {"measurement": "inhibition (INH)", "setting": "[6]", "value": "Not Active"},
      {"measurement": "MTD at 168 h", "setting": "[7]", "value": "≥ 80", "unit": "mg/kg"},
      {"measurement": "IC50", "setting": "HCT-116", "value": 1100, "unit": "nM"},
      {"measurement": "IC50", "setting": "[8]", "value": 64, "unit": "nM"},
      {"measurement": "half-life", "setting": "[9]", "value": 6.4, "unit": "h"},
      {"measurement": "Activity", "setting": "SK-OV-3 [10]", "value": 64.22, "unit": "%"},
      {"measurement": "fraction unbound at 8 h, 300 ng/ml", "setting": "[11]", "value": 0.07},
      {"measurement": "Activity", "setting": "[12]", "value": "Non-Toxic"},
      {"measurement": "remaining at 1 h, 100 ug/ml", "setting": "[13]", "value": "> 99", "unit": "%"},
      {"measurement": "inhibition (INH)", "setting": "[14]", "value": "Not Active"},
      {"measurement": "Activity", "setting": "[15]", "value": "Non-Toxic"},
      {"measurement": "remaining at 1.5 h, 100 ug/ml", "setting": "[16]", "value": 89, "unit": "%"},
      {"measurement": "inhibition (INH)", "setting": "[17]", "value": "Not Active"},
      {"measurement": "Activity", "setting": "[18]", "value": "Non-Toxic"},
      {"measurement": "remaining at 1 h, 100 ug/ml", "setting": "[19]", "value": "> 99", "unit": "%"},
      {"measurement": "Tmax", "setting": "[20]", "value": 1.8, "unit": "h"},
      {"measurement": "CL/F", "setting": "[21]", "value": 31.7, "unit": "mL/min/kg"},
      {"measurement": "CL/F", "setting": "[22]", "value": 237, "unit": "mL/min/kg"},
      {"measurement": "Activity", "setting": "SK-OV-3 [23]", "value": 39.88, "unit": "%"},
      {"measurement": "Activity", "setting": "[24]", "value": "Toxic"},
      {"measurement": "Cmax", "setting": "[25]", "value": 407, "unit": "ng/mL"},
      {"measurement": "IC50", "setting": "Protein kinase C (PKC)", "value": 94, "unit": "nM"},
      {"measurement": "remaining at 1.5 h, 100 ug/ml", "setting": "[26]", "value": 96, "unit": "%"},
      {"measurement": "MRT inf", "setting": "[27]", "value": 11.4, "unit": "h"},
      {"measurement": "MRT last at 24 h", "setting": "[28]", "value": 5.8, "unit": "h"},
      {"measurement": "IC50", "setting": "[29]", "value": 131, "unit": "nM"},
      {"measurement": "inhibition in vivo at 80 mg/kg", "setting": "SK-OV-3 [30]", "value": 90, "unit": "%"}
    ]}
  ]
}
